Source: patent US11690825B2 (BOARD OF REGENTS, THE UNIVERSITY OF TEXAS SYSTEM, priority 2016, dated 2023)

Legend:
[1] = test system: membrane fractions of human endothelial cells (EC); assay: 20-APheDa UV crosslinking / click-chemistry band competition; assay type: binding; conditions: excess amounts of competitor
Experimental: When incubated with membrane fractions of human endothelial cells (EC) followed by 15 min of UV (365 nm) crosslinking and 1 h incubation with the click reagent (DBCO-IRdye 800CW, LiCor), an intense band of approximately 47-49 kDa was detected (FIG. 8c).

[2] = test system: mouse models of hypertension; assay: DOX mouse model of hypertension: blood pressure, ACE expression, vascular remodeling; assay type: in vivo
Experimental: Systolic blood pressure measurements were taken using the CODA tail-cuff system (Kent Scientific), which utilizes volume pressure recording sensor technology. Mice were acclimated to the machine for one week prior to day 0 and blood pressure was monitored throughout the length of the experiment. […] At the end of the experiment, mice were anesthetized with ketamine (70 mg/kg) and xylazine (70 mg/kg) and laporotomy was performed. Preglomerular arteries were microdissected and collected for western blot analysis, lipid extraction and functional studies. Measurements of Media Thickness, Media to Lumen Ratio, and Medial Cross-Sectional Area (CSA) Segments of renal interlobar arteries were dissected and mounted on a pressurized myograph and equilibrated for 1 h in oxygenated krebs buffer at 37° C. The operator was blinded to treatments except for the blood pressure range of the animal. Lumen diameters from normotensive animals were determined at 100 mmHg and hypertensive animals at 140 mmHg. Measurements of outer diameter (OD) and inner diameter (ID) under passive conditions were used to calculate media thickness [(OD−ID)/2], media to lumen ratio (OD−ID)/ID], and medial cross-sectional area [CSA=(π/4)×(OD2−ID2)] […] Expression of ACE. […] SDS-polyacrylamide gels were transferred to Tran-Blot Turbo Mini PVDF membranes (Bio-Rad, Hercules, Calif.) followed by blocking buffer (Li-Cor, Lincoln, Nebr.) and subsequent incubation with primary and secondary antibodies.

Cyp4a14−/− mice = assay: High-fat diet in Cyp4a14−/− mice overexpressing 20-HETE; assay type: in vivo, mouse
JCR rats = assay: Coronary collateral growth in rat model of metabolic syndrome; assay type: in vivo; conditions: JCR rats compared with SD rats
Water solubility = assay type: physicochemical
From the text: As used herein, the term “water soluble” means that the compound dissolves in water at least to the extent of 0.010 mole/liter or is classified as soluble according to literature precedence.

[3] = test system: arteries (responsiveness to the constrictor activity of phenylephrine); assay: Vasoactivity bioassay: ability of 20-HETE to enhance responsiveness of arteries to phenylephrine (PE) constriction; conditions: for Fold Change from 20-HETE: negative values = 20-HETE antagonists, positive values = agonists
ACE = ACE transcription (mRNA) in endothelial cells; assay type: cell-based, human; conditions: EC
[4] = test system: TAFI, thrombin-activated fibrinolysis inhibitor; conditions: endothelial cells; cited from earlier work
[5] = test system: NO bioavailability and ACE expression; conditions: cited from earlier work
GPR75 [6] = biological target: T1, GPR75 (Homo sapiens, UniProt O95800); assay: β-arrestin GPCR recruitment assay, GPR75 expressed in CHO cells; assay type: cell-based; set-up: expressed in transfected cells; host or cells: CHO cells
From the text: β-arrestin represents a robust and widely used screening technology for GPCR-ligand pairing. GPCR-mediated β-arrestin recruitment is also recognized as a distinct intracellular signaling pathway, and ligand-receptor interactions may show a bias toward β-arrestin over classical GPCR signaling pathways.
Target sequence in this assay (O95800 whole entry): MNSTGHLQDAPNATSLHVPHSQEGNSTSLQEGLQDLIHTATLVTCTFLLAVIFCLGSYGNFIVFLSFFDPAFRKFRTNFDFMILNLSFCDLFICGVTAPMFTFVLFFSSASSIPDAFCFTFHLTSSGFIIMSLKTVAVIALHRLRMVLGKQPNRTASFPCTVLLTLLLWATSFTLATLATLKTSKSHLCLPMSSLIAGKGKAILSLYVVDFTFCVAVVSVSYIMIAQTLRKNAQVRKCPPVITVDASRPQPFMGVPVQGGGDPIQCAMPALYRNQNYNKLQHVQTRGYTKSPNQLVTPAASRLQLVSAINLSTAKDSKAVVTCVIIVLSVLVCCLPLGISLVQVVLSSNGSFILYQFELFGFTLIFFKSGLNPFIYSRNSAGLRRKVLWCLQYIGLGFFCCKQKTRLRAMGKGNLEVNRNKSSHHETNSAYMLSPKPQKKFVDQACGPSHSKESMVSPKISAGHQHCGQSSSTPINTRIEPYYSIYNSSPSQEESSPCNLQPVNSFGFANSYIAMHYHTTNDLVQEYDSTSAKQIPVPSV

EGFR = EGFR tyrosine phosphorylation and c-Src association in EC
GPR75 [7] = biological target: T1, GPR75; assay: GPR75 immunoprecipitation in EC (HMVEC); assay type: cell-based; set-up: endogenous in cells; host or cells: HMVEC (human microvascular endothelial cells); EA.hy926 lysate is also mentioned; conditions: 10 nM for 5 min
From the text: Immunoprecipitation of GPR75 in EC further indicated its association with Gαq/11, GIT1 and HIC-5 (FIG. 11a). […] No change in GPR75-Gαq/11 association was detected in EC (FIG. 11b).
Immunoprecipitation. […] Western Blot Analysis.
Target sequence in this assay (O95800 whole entry): as above
Target sequence in this assay (Q9Y2X7 whole entry partner): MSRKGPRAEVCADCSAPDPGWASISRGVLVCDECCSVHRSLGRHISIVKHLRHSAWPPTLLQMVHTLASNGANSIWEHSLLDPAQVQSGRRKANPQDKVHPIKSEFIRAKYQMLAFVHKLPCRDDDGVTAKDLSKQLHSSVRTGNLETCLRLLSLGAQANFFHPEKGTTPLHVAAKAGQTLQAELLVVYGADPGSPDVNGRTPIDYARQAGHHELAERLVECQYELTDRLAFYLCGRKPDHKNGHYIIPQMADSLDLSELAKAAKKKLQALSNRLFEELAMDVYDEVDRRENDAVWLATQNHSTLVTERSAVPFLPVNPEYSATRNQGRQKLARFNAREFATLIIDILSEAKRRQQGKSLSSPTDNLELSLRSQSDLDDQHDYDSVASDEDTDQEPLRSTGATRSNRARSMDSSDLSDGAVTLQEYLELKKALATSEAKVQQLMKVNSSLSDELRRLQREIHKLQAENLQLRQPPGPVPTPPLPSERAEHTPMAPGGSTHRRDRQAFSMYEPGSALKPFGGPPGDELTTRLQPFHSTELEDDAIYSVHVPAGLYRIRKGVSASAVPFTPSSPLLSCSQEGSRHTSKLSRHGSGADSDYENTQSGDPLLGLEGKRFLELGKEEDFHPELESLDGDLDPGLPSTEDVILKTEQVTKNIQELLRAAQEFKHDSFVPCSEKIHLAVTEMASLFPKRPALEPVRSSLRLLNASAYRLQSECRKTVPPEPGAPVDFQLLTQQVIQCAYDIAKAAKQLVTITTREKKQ

[8] = Cyp4a14−/− mice on a high-fat diet

CCCCC/C=C\C[C@H](O)/C=C/C=C\C/C=C\CCCC(=O)O [12(S)-HETE, 12(S)-hydroxyeicosa-5(Z),8(Z),10(E),14(Z)-tetraenoic acid]
competition with formation of the 47-49 kDa 20-APheDa band [1]: not

O=C(O)CNC(=O)CCCC/C=C\CCCCCCC/C=C\CCCCO [20-6,15-HEDGE, 2-(20-hydroxyeicosa-6(Z),15(Z)-dienamido)acetic acid]
ACE expression in preglomerular microvessels (PGMV) ([2]; compared with lisinopril and losartan): decreases ACE expression
systolic blood pressure ([2]; in combination with DOX, several time points): decreases systolic blood pressure as effectively as the ACE inhibitors lisinopril and losartan
vascular remodeling ([2]; mouse, in vivo): decreasing vascular remodeling

COCCOCCOCCOCCOCCOCCOC(=O)CCCC/C=C\CCCCCCC/C=C\CCCCO [20-6,15-SOLA, 2,5,8,11,14,17-hexaoxanonadecan-19-yl 20-hydroxyeicosa-6(Z),15(Z)-dienoate]
high-fat diet-induced hyperglycemia (Cyp4a14−/− mice; Cyp4a14−/− mice): normalized
high-fat diet-induced obesity (Cyp4a14−/− mice; Cyp4a14−/− mice): attenuates
hyperinsulinemia (Cyp4a14−/− mice; [8]): alleviates
hyperleptinemia (Cyp4a14−/− mice; [8]): alleviates
impaired coronary collateral growth (CCG) (JCR rats): attenuates
water solubility (Water solubility): water-soluble

C[C@H](O)CCC/C=C\CCCCCCC/C=C\CCCC(=O)[O-].[Na+] [Analog 1, sodium 19(S)-hydroxyeicosa-5(Z),14(Z)-dienoate]
Fold Change from 20-HETE ([3]; fold change of EC50 to PE): −0.68

C[C@@H](O)CCC/C=C\CCCCCCC/C=C\CCCC(=O)[O-].[Na+] [Analog 2, 19(R)-Hydroxyeicosa-5(Z),14(Z)-dienoate]
Fold Change from 20-HETE ([3]; fold change of EC50 to PE): −0.85

[N-]=[N+]=NC[C@H](O)CCC/C=C\CCCCCCC/C=C\CCCC(=O)[O-].[Na+] [Analog 3, Sodium 20-azido-19(R)-hydroxyeicosa-5(Z),14(Z)-dienoate]
Fold Change from 20-HETE ([3]; fold change of EC50 to PE): −5.69

[N-]=[N+]=NC[C@@H](O)CCC/C=C\CCCCCCC/C=C\CCCC(=O)[O-].[Na+] [Analog 4, sodium 20-azido-19(S)-hydroxyeicosa-5(Z),14(Z)-dienoate]
Fold Change from 20-HETE ([3]; fold change of EC50 to PE): −5.45

[N-]=[N+]=N[C@H](CO)CCC/C=C\CCCCCCC/C=C\CCCC(=O)[O-].[Na+] [Analog 5, Sodium 19(S)-azido-20-hydroxyeicosa-5(Z),14(Z)-dienoate]
Fold Change from 20-HETE ([3]; fold change of EC50 to PE): 0.16

[N-]=[N+]=N[C@@H](CO)CCC/C=C\CCCCCCC/C=C\CCCC(=O)[O-].[Na+] [Analog 6, Sodium 19(R)-azido-20-hydroxyeicosa-5(Z),14(Z)-dienoate]
Fold Change from 20-HETE ([3]; fold change of EC50 to PE): 0.50

C[C@H](O)CCC/C=C\CCCCCCC/C=C\CCCC(=O)NCC(=O)[O-].[Na+] [Analog 7, Sodium (19(S)-hydroxyeicosa-5(Z),14(Z)-dienoyl)glycinate]
Fold Change from 20-HETE ([3]; fold change of EC50 to PE): −3.46

C[C@@H](O)CCC/C=C\CCCCCCC/C=C\CCCC(=O)NCC(=O)[O-].[Na+] [Analog 8, Sodium (19(R)-hydroxyeicosa-5(Z),14(Z)-dienoyl)glycinate]
Fold Change from 20-HETE ([3]; fold change of EC50 to PE): −4.67

C[C@H](O)CCC/C=C\CCCCCCC/C=C\CCCC(=O)N[C@@H](CC(=O)[O-])C(=O)[O-].[Na+].[Na+] [Analog 9, disodium (19(S)-hydroxyeicosa-5(Z),14(Z)-dienoyl)-L-aspartate]
Fold Change from 20-HETE ([3]; fold change of EC50 to PE): −0.59

C[C@@H](O)CCC/C=C\CCCCCCC/C=C\CCCC(=O)N[C@@H](CC(=O)[O-])C(=O)[O-].[Na+].[Na+] [Analog 10, Disodium (19(R)-hydroxyeicosa-5(Z),14(Z)-dienoyl)-L-aspartate]
Fold Change from 20-HETE ([3]; fold change of EC50 to PE): −2.03

CC(O)CCCCCCCCCCCC/C=C\CCCC(=O)[O-].[Na+] (centres unmarked) [Analog 11, Sodium 19-hydroxyeicosa-5(Z)-enoate]
Fold Change from 20-HETE ([3]; fold change of EC50 to PE): −1.66

CC(O)CCC/C=C\CCCCCCCCCCCCC(=O)[O-].[Na+] (centres unmarked) [Analog 12, Sodium 19-hydroxyeicosa-14(Z)-enoate]
Fold Change from 20-HETE ([3]; fold change of EC50 to PE): 0.79

CC(O)CCCCCCCCCCCC/C=C\CCCC(=O)NCC(=O)[O-].[Na+] (centres unmarked) [Analog 13, Sodium (19-hydroxyeicosa-5(Z)-enoyl)glycinate]
Fold Change from 20-HETE ([3]; fold change of EC50 to PE): −2.19

CC(O)CCC/C=C\CCCCCCCCCCCCC(=O)NCC(=O)[O-].[Na+] (centres unmarked) [Analog 14, Sodium (19-hydroxyeicosa-14(Z)-enoyl)glycinate]
Fold Change from 20-HETE ([3]; fold change of EC50 to PE): −2.56

CCC(O)CC/C=C\CCCCCCC/C=C\CCCC(=O)[O-].[Na+] (centres unmarked) [Analog 15, Sodium 18-hydroxyeicosa-5(Z),14(Z)-dienoate]
Fold Change from 20-HETE ([3]; fold change of EC50 to PE): −2.17

CCC(O)CC/C=C\CCCCCCC/C=C\CCCC(=O)NCC(=O)[O-].[Na+] (centres unmarked) [Analog 16, Sodium (18-hydroxyeicosa-5(Z),14(Z)-dienoyl)glycinate]
Fold Change from 20-HETE ([3]; fold change of EC50 to PE): −1.13

CC(C)(O)CCC/C=C\CCCCCCC/C=C\CCCC(=O)NCC(=O)[O-].[Na+] [Analog 18, Sodium 2-(19-hydroxy-19-methyleicosa-5(Z),14(Z)-dienamido)acetate]
Fold Change from 20-HETE ([3]; fold change of EC50 to PE): −1.16

O=C([O-])CCC/C=C\CCCCCCC/C=C\CCCCO.[Na+] [Analog 19, Sodium 19-hydroxynonadeca-5(Z),14(Z)-dienoate]
Fold Change from 20-HETE ([3]; fold change of EC50 to PE): −0.68

O=C([O-])CNC(=O)CCC/C=C\CCCCCCC/C=C\CCCCO.[Na+] [Analog 20, sodium (19-hydroxynonadeca-5(Z),14(Z)-dienoyl)glycinate]
Fold Change from 20-HETE ([3]; fold change of EC50 to PE): −0.74

O=C(O)CCC/C=C\C/C=C\C/C=C\C/C=C\CCCCCO [Analog 20-HETE, 20-hydroxyeicosa-5(Z),8(Z),11(Z),14(Z)-tetraenoic acid]
competition with formation of the 47-49 kDa 20-APheDa band [1]: competed with
ACE transcription (ACE mRNA) (ACE): increase in ACE mRNA
induction of TAFI expression [4]: 2-3 fold
concentration range of maximal changes in NO bioavailability and ACE expression [5]: 5 to 10 nmol/L
GPR75 activation (β-arrestin recruitment) (GPR75 [6]): activated GPR75
association of c-Src with EGFR (EGFR; EC): increased
association of c-Src with GIT1 (EGFR; EC): decreased
increase of tyrosine phosphorylation of EGFR (EGFR; EC transduced with control siRNA): 1.99±0.16 fold
increase in EGFR phosphorylation (EGFR; FIG. 12d): 2-3 fold
GPR75-HIC-5 dissociation (GPR75 [7]): 60%

CC(O)CCC/C=C\CCCCCCC/C=C\CCCc1nnn[nH]1 (centres unmarked) [Analog 21, 19-(1H-Tetrazol-5-yl)nonadeca-6(Z),15(Z)-dien-2-ol]
Fold Change from 20-HETE ([3]; fold change of EC50 to PE): −0.78

[N-]=[N+]=NC[C@@H](O)CCC/C=C\CCCCCCC/C=C\CCCC(=O)NS(=O)(=O)c1ccc(NC(=O)CCc2ccc(C(=O)c3ccccc3)cc2)cc1 [PCL, 20-azido-N-((4-(3-(4-benzoylphenyl)propanamido)phenyl)sulfonyl)-19(S)-hydroxyeicosa-5(Z),14(Z)-dienamide]
block of 20-HETE-mediated sensitization of PE vasoconstriction, change of EC50 to PE ([3]; FIG. 8b): 4 fold
Fold Change from 20-HETE ([3]; fold change of EC50 to PE): −3.28

CCL5: a proposed GPR75 ligand
ACE transcription (ACE mRNA) (ACE): did not induce

Sodium 20-azido-19(R)-hydroxyeicosa-5(Z),14(Z)-dienoate [Analog 3]
Fold increase/decrese from 20-HETE ([3]; Table 2, fold change of EC50 to PE): −6.78
